Numbered stars: 1 amine (or outer) side, 2 acyl side, 3 side chain; on linkers, the order of the positions; unused ones are H or OH. Bridge positions count the residues as written; N and C are the ends. Square brackets hold non-standard residues; d marks the D form. Peptide text beside a SMILES is read from it. * marks the point of attachment. hPhe(3,5-F2-4-CF3) = N[C@@H](CCc1cc(F)c(C(F)(F)F)c(F)c1)C(=O)O; hPhe(3-Cl-4-CF3) = N[C@@H](CCc1ccc(C(F)(F)F)c(Cl)c1)C(=O)O; NMePhe(4-CF3) = CN[C@@H](Cc1ccc(C(F)(F)F)cc1)C(=O)O; X105 = C[C@@](Cc1cccc(I)c1)(N[*:1])C(=O)[*:2]; 3Oxa8azabicyclo(3.2.1)octane = C1CC2COCC1N2*; NEtPhe(4-Me) = CCN[C@@H](Cc1ccc(C)cc1)C(=O)O; NMeAbu(4,4,4-F3) = CN[C@@H](CC(F)(F)F)C(=O)O; NMePhe(4-Cl) = CN[C@@H](Cc1ccc(Cl)cc1)C(=O)O; NMePhe(4-Me) = CN[C@@H](Cc1ccc(C)cc1)C(=O)O; X59 = Cc1ccc(Br)cc1C[C@H](N[*:1])C(=O)[*:2]; X64 = O=C([C@H](Cc1ccc(Br)s1)N[*:1])[*:2]; NMeGly(cPent) = CN[C@H](C(=O)O)C1CCCC1; Phe(3-I) = N[C@@H](Cc1cccc(I)c1)C(=O)O; Pro(4,4-F2) = O=C(O)[C@@H]1CC(F)(F)CN1; NMeY = CN[C@@H](Cc1ccc(O)cc1)C(=O)O; NMeCha = CN[C@@H](CC1CCCCC1)C(=O)O; NMeChg = CN[C@H](C(=O)O)C1CCCCC1; NMeD = CN[C@@H](CC(=O)O)C(=O)O; NMeL = CN[C@@H](CC(C)C)C(=O)O; d(β3hA) = C[C@@H](N)CC(=O)O; NMeAbu = CC[C@H](NC)C(=O)O; Morpholide = C1CN(*)CCO1; NMeA = CN[C@@H](C)C(=O)O; NMeAib = CNC(C)(C)C(=O)O; Nle = CCCC[C@H](N)C(=O)O; Piperidide = C1CCN(*)CC1; Pra = C#CC[C@H](N)C(=O)O; Pyrrolidide = C1CCN(*)C1; Ac5c = NC1(C(=O)O)CCCC1; Aze = O=C(O)[C@@H]1CCN1; CF3 = FC(F)(F)*; Sar = CNCC(=O)O

The subject of the test is Human pancreatic cancer cell line AsPC-1 (G12D mutation Kras). Description: AsPC-1 cell growth inhibition (AsPC-1 CGI). The class given is cell-based. The settings on record: read-out: AsPC-1 cell growth inhibition, 50% growth inhibitory concentration (IC50 value); 96 hours, CellTiter-Glo, values classified in ranges. Background: Cellular ATP, detected with luciferase, serves as a proxy for viable cell number.
Procedure: Test compounds were serially dilated with dimethyl sulfoxide, and 200 nL was then dispensed to a U-bottom 96-well plate using Labcyte Echo. […] The cell suspension was dispensed to a. plate containing a test compound at 100 μL per well and incubated at 37° C. in a 5% carbon dioxide gas incubator. 96 hours later, 80 μL of CellTiter-Glo (Promega) was added to each well and fluorescence was measured.
As for `CC[C@H](C)[C@@H]1NC(=O)[C@H](CC(C)C)N(C)C(=O)C[C@@H](C(=O)N2CCOCC2)N(C)C(=O)[C@H](C2CCCCC2)N(C)C(=O)C2(CCCC2)NC(=O)[C@@H]2CC(F)(F)CN2C(=O)[C@H](CCc2ccc(C(F)(F)F)c(Cl)c2)NC(=O)CN(C)C(=O)[C@H](CC2CCCCC2)N(C)C(=O)CN(C)C(=O)CN(C)C1=O` [Compound 1194] ([NMeL]I[Sar][Sar][NMeCha][Sar][hPhe(3-Cl-4-CF3)][Pro(4,4-F2)][Ac5c][NMeChg][NMeD]-Morpholide; lactam N-11), the IC50 is at most 20 nM. Consider `CCCC[C@@H]1NC(=O)[C@H](Cc2cc(Br)ccc2C)NC(=O)CN(C)C(=O)[C@H](Cc2ccc(OC)cc2)N(C)C(=O)[C@@H]2CCN2C(=O)[C@H](C)N(C)C(=O)[C@H]([C@@H](C)CC)NC(=O)[C@H](CC)N(C)C(=O)C[C@@H](C(=O)N2CCCCC2)N(C)C(=O)[C@H](CC(C)C)NC(=O)C(C)(C)N(C)C1=O` [Compound 1195] ([NMeAbu]I[NMeA][Aze][NMeY](Me)[Sar][X59][Nle][NMeAib]L[NMeD]-Piperidide; lactam N-11), for which the IC50 is above 500 nM. Regarding `CC[C@H](C)[C@@H]1NC(=O)[C@H](CC(F)(F)F)N(C)C(=O)C[C@@H](C(=O)N2CCCC2)N(C)C(=O)[C@H](C2CCCCC2)N(C)C(=O)C2(CCCC2)NC(=O)[C@@H]2CC(F)(F)CN2C(=O)[C@H](CCc2ccc(C(F)(F)F)c(Cl)c2)NC(=O)CN(C)C(=O)[C@H](Cc2ccc(C(F)(F)F)cc2)N(C)C(=O)CN(C)C(=O)CN(C)C1=O` [Compound 1196] ([NMeAbu(4,4,4-F3)]I[Sar][Sar][NMePhe(4-CF3)][Sar][hPhe(3-Cl-4-CF3)][Pro(4,4-F2)][Ac5c][NMeChg][NMeD]-Pyrrolidide; lactam N-11), the IC50 is at most 20 nM. On to `CCCC[C@@H]1NC(=O)[C@](C)(Cc2cccc(I)c2)NC(=O)CN(C)C(=O)[C@H](Cc2ccc(Cl)cc2)N(C)C(=O)CN(C)C(=O)CN(C)C(=O)[C@H]([C@@H](C)CC)NC(=O)[C@H](CC(C)C)N(C)C(=O)C[C@@H](C(=O)N2CCCCC2)N(C)C(=O)[C@H](CC(C)C)NC(=O)C(C)(C)N(C)C1=O` [Compound 1202] ([NMeL]I[Sar][Sar][NMePhe(4-Cl)][Sar][X105][Nle][NMeAib]L[NMeD]-Piperidide; lactam N-11), for which the IC50 is above 500 nM. In the case of `CC[C@H](C)[C@@H]1NC(=O)[C@H](CC(C)C)N(C)C(=O)C[C@@H](C(=O)N2C3CCC2COC3)N(C)C(=O)[C@H](C2CCCC2)N(C)C(=O)C2(CCCC2)NC(=O)[C@@H]2CCCN2C(=O)[C@H](CCc2cc(F)c(C(F)(F)F)c(F)c2)NC(=O)CN(C)C(=O)[C@H](Cc2ccc(C)cc2)N(CC)C(=O)[C@@H]2CCN2C(=O)[C@H](C)N(C)C1=O` [Compound 1215] ([NMeL]I[NMeA][Aze][NEtPhe(4-Me)][Sar][hPhe(3,5-F2-4-CF3)]P[Ac5c][NMeGly(cPent)][NMeD]-{3Oxa8azabicyclo(3.2.1)octane}; lactam N-11), the IC50 was at most 20 nM. As for `CCCC[C@@H]1NC(=O)[C@H](Cc2ccc(Br)s2)NC(=O)CN(C)C(=O)[C@H](Cc2ccc(Cl)cc2)N(C)C(=O)CN(C)C(=O)CN(C)C(=O)[C@H]([C@@H](C)CC)NC(=O)[C@H](CC(C)C)N(C)C(=O)C[C@@H](C(=O)N2CCCCC2)N(C)C(=O)[C@H](CC(C)C)NC(=O)C(C)(C)N(C)C1=O` [Compound 1216] ([NMeL]I[Sar][Sar][NMePhe(4-Cl)][Sar][X64][Nle][NMeAib]L[NMeD]-Piperidide; lactam N-11), the IC50 was above 500 nM. Then `C#CC[C@@H]1NC(=O)[C@H](Cc2cccc(I)c2)NC(=O)CN(C)C(=O)[C@H](Cc2ccc(OC(F)(F)F)cc2)N(C)C(=O)CN(C)C(=O)CN(C)C(=O)[C@H]([C@@H](C)CC)NC(=O)[C@H](CC(C)C)N(C)C(=O)C[C@@H](C(=O)N2CCCCC2)N(C)C(=O)[C@H](CC(C)C)NC(=O)C(C)(C)N(C)C1=O` [Compound 1219] ([NMeL]I[Sar][Sar][NMeY](CF3)[Sar][Phe(3-I)][Pra][NMeAib]L[NMeD]-Piperidide; lactam N-11), with above 500 nM; and `CC[C@H](C)[C@@H]1NC(=O)[C@H](CC(C)C)N(C)C(=O)C[C@@H](C)NC(=O)[C@H](C2CCCC2)N(C)C(=O)[C@H](C)NC(=O)[C@@H]2CCCN2C(=O)[C@H](CCc2ccc(C(F)(F)F)c(Cl)c2)NC(=O)CN(C)C(=O)[C@H](Cc2ccc(C)cc2)N(C)C(=O)[C@@H]2CCN2C(=O)[C@H](C)N(C)C1=O` [Compound 1221] (cyclo(A[NMeGly(cPent)][d(β3hA)][NMeL]I[NMeA][Aze][NMePhe(4-Me)][Sar][hPhe(3-Cl-4-CF3)]P)), with above 500 nM; and `Cc1ccc(C[C@H]2C(=O)N(C)CC(=O)N[C@@H](CCc3ccc(C(F)(F)F)c(Cl)c3)C(=O)N3CCC[C@H]3C(=O)NC3(CCCC3)C(=O)N(C)[C@@H](C3CCCC3)C(=O)N[C@H](C)CC(=O)N(C)[C@@H](CC(C)C)C(=O)N[C@@H](C)C(=O)N(C)[C@@H](C)C(=O)N3CC[C@H]3C(=O)N2C)cc1` [Compound 1225] (cyclo(A[NMeA][Aze][NMePhe(4-Me)][Sar][hPhe(3-Cl-4-CF3)]P[Ac5c][NMeGly(cPent)][d(β3hA)][NMeL])), with above 500 nM.

These data come from patent US20240148821A1, “PHARMACEUTICAL USE OF CYCLIC PEPTIDE COMPOUND” (CHUGAI SEIYAKU KABUSHIKI KAISHA, priority 2021, published 2024).
